Reference: patent US7723368B2, “Amino-5-[4-(difluoromethoxy)phenyl]-5-phenylimidazolone compounds for the inhibition of beta-secretase” (Wyeth LLC, priority 2007, dated 2010)

target: human BACE1 (Homo sapiens, UniProt P56817); experiment: BACE1 fluorescent kinetic assay (cleavage of peptide substrate WABC-6); assay type: biochemical; details: Activity Table, Examples 1-108; 10 nM enzyme, 25 μM substrate WABC-6, pH 4.5, room temperature
Method: Evaluation of BACE1 Binding Affinity of Test Compounds
Fluorescent Kinetic Assays
Dilution and mixing steps: total reaction volume: 100 μL
100 μM substrate dilution in 1×PBS was prepared, and
Fluorescence Readings: Readings at λex 320 nm and λem 420 nm are taken every 40 sec for 30 min at room temperature and the linear slope for substrate cleavage rate (vi) determined.

Sequence of human BACE1 (P56817 46-501): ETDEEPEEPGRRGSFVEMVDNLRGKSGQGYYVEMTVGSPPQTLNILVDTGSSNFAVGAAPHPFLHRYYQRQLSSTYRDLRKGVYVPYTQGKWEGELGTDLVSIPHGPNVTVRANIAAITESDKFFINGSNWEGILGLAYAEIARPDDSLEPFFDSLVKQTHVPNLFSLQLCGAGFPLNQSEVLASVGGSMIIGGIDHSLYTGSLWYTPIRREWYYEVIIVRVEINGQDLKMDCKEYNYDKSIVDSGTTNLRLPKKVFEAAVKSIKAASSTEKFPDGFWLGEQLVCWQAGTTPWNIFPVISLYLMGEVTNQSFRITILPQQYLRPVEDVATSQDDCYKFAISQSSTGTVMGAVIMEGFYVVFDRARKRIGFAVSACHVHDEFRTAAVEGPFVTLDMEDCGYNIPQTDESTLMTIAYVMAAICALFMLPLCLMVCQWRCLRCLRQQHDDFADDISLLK

Compound	IC50 [nM]
CN1C(=O)[C@](c2ccc(OC(F)F)cc2)(c2ccc(F)c(C#CCCF)c2)N=C1N [Example 103, (5S)-2-amino-5-[4-(difluoromethoxy)phenyl]-5-[4-fluoro-3-(4-fluorobut-1-yn-1-yl)phenyl]-3-methyl-3,5-dihydro-4H-imidazol-4-one]	> 1000
CC=CC(=O)Nc1cccc(C2(c3ccc(OC(F)F)cc3)N=C(N)N(C)C2=O)c1 (stereo not shown) [Example 30]	110 to 1000
CN1C(=O)C(c2ccc(OC(F)F)cc2)(c2cccc(NC(=O)CCCl)c2)N=C1N (stereo not shown) [Example 24]	110 to 1000
CN1C(=O)[C@@](c2ccc(OC(F)F)cc2)(c2ccc(F)c(OCCC(F)F)c2)N=C1N [Example 94, (5R)-2-Amino-5-[4-(difluoromethoxy)phenyl]-5-[3-(3,3-difluoropropoxy)-4-fluorophenyl]-3-methyl-3,5-dihydro-4H-imidazol-4-one]	< 100
methyl[3-(3-{2-amino-4-[4-(difluoromethoxy)phenyl]-1-methyl-5-oxo-4,5-dihydro-1H-imidazol-4-yl}phenyl)-1-methoxycyclobutyl]acetate-methyl[3-(3-{2-amino-4-[4-(difluoromethoxy)phenyl]-1-methyl-5-oxo-4,5-dihydro-1H-imidazol-4-yl}phenyl)cyclobutylidene]acetate (3:1) [Example 55]	110 to 1000
CN1C(=O)C(c2ccc(OC(F)F)cc2)(c2cccc(C3CC3)c2)N=C1N (stereo not shown) [Example 70, 2-amino-4-(3-cyclopropylphenyl)-4-(4-(difluoromethoxy)phenyl)-1-methyl-1H-imidazol-5(4H)-one]	> 1000
CCC(=O)Nc1cccc(C2(c3ccc(OC(F)F)cc3)N=C(N)N(C)C2=O)c1 (stereo not shown) [Example 21]	110 to 1000
CN1C(=O)C(c2ccc(OC(F)F)cc2)(c2cccc(NC(=O)c3cccs3)c2)N=C1N (stereo not shown) [Example 42]	110 to 1000
COC/C=C(\C)c1cccc(C2(c3ccc(OC(F)F)cc3)N=C(N)N(C)C2=O)c1 (stereo not shown) [Example 71, (E)-2-amino-4-(4-(difluoromethoxy)phenyl)-4-(3-(4-methoxybut-2-en-2-yl)phenyl)-1-methyl-1H-imidazol-5(4H)-one]	110 to 1000
CCOCCC#Cc1cccc(C2(c3ccc(OC(F)F)cc3)N=C(N)N(C)C2=O)c1 (stereo not shown) [Example 73, 2-Amino-5-[4-(difluoromethoxy)phenyl]-5-[3-(4-ethoxybut-1-yn-1-yl)phenyl]-3-methyl-3,5-dihydro-4H-imidazol-4-one]	< 100
COCCC1CC(c2cccc(C3(c4ccc(OC(F)F)cc4)N=C(N)N(C)C3=O)c2)C1 (stereo not shown) [Example 59, 2-amino-5-[4-(difluoromethoxy)phenyl]-5-{3-[3-(2-methoxyethyl)cyclobutyl]phenyl}-3-methyl-3,5-dihydro-4H-imidazol-4-one]	110 to 1000
C=CCCCOc1cccc([C@@]2(c3ccc(OC(F)F)cc3)N=C(N)N(C)C2=O)c1 [Example 10C, (R)-2-amino-4-(4-(difluoromethoxy)phenyl)-1-methyl-4-(3-(pent-4-enyloxy)phenyl)-1H-imidazol-5(4H)-one]	< 100
CN1C(=O)C(c2ccc(OC(F)F)cc2)(c2cccc(NC(=O)C(Cl)(Cl)Cl)c2)N=C1N (stereo not shown) [Example 36]	< 100
CN1C(=O)C(c2ccc(OC(F)F)cc2)(c2cccc(NC(=O)C=Cc3ccccc3)c2)N=C1N (stereo not shown) [Example 32]	110 to 1000
CCCCC(=O)Nc1cccc(C2(c3ccc(OC(F)F)cc3)N=C(N)N(C)C2=O)c1 (stereo not shown) [Example 23]	110 to 1000
CN1C(=O)C(c2ccc(OC(F)F)cc2)(c2ccc(F)c(C#CCCF)c2)N=C1N (stereo not shown) [Example 102, 2-amino-5-[4-(difluoromethoxy)phenyl]-5-[4-fluoro-3-(4-fluorobut-1-yn-1-yl)phenyl]-3-methyl-3,5-dihydro-4H-imidazol-4-one]	< 100
CC(C)C(=O)Nc1cccc(C2(c3ccc(OC(F)F)cc3)N=C(N)N(C)C2=O)c1 (stereo not shown) [Example 27]	110 to 1000
CCCNCc1cccc(C2(c3ccc(OC(F)F)cc3)N=C(N)N(C)C2=O)c1 (stereo not shown) [Example 64, 2-amino-5-[4-(difluoromethoxy)phenyl]-3-methyl-5-{3-[(propylamino)-methyl]phenyl}-3,5-dihydro-4H-imidazol-4-one]	110 to 1000
CN1C(=O)[C@](c2ccc(OC(F)F)cc2)(c2cccc(CCCCC#N)c2)N=C1N [Example 11B, 5-(3-{(4S)-2-amino-4-[4-(difluoromethoxy)phenyl]-1-methyl-5-oxo-4,5-dihydro-1H-imidazol-4-yl}phenyl)pentanenitrile]	> 1000

Compound	IC50 [nM]
CN1C(=O)C(c2ccc(OC(F)F)cc2)(c2cccc(NC3CCCCC3)c2)N=C1N (stereo not shown) [Example 48]	110 to 1000
CN1C(=O)C(c2ccc(OC(F)F)cc2)(c2cccc(NC(=O)C3CCC3)c2)N=C1N (stereo not shown) [Example 29]	110 to 1000
C=CCOc1cccc([C@@]2(c3ccc(OC(F)F)cc3)N=C(N)N(C)C2=O)c1 [Example 10H, (R)-4-(3-(allyloxy)phenyl)-2-amino-4-(4-(difluoromethoxy)phenyl)-1-methyl-1H-imidazol-5(4H)-one]	< 100
CN1C(=O)C(c2ccc(OC(F)F)cc2)(c2ccc(F)c(C#CCF)c2)N=C1N (stereo not shown) [Example 99, 2-amino-5-[4-(difluoromethoxy)phenyl]-5-[4-fluoro-3-(3-fluoroprop-1-yn-1-yl)phenyl]-3-methyl-3,5-dihydro-4H-imidazol-4-one]	< 100
CCNCc1cccc(C2(c3ccc(OC(F)F)cc3)N=C(N)N(C)C2=O)c1 (stereo not shown) [Example 63, 2-amino-5-[4-(difluoromethoxy)phenyl]-5-{3-[(ethylamino)methyl]phenyl}-3-methyl-3,5-dihydro-4H-imidazol-4-one]	110 to 1000
CCCCNCc1cccc(C2(c3ccc(OC(F)F)cc3)N=C(N)N(C)C2=O)c1 (stereo not shown) [Example 65, 2-amino-5-{3-[(butylamino)methyl]phenyl}-5-[4-(difluoromethoxy)phenyl]-3-methyl-3,5-dihydro-4H-imidazol-4-one]	110 to 1000
C=CCCOc1cccc([C@]2(c3ccc(OC(F)F)cc3)N=C(N)N(C)C2=O)c1 [Example 10B, (5S)-2-amino-5-[3-(but-3-en-1-yloxy)phenyl]-5-[4-(difluoromethoxy)phenyl]-3-methyl-3,5-dihydro-4H-imidazol-4-one]	110 to 1000
CN1C(=O)[C@@](c2ccc(OC(F)F)cc2)(c2cccc(CCCCC#N)c2)N=C1N [Example 11A, 5-(3-{(4R)-2-amino-4-[4-(difluoromethoxy)phenyl]-1-methyl-5-oxo-4,5-dihydro-1H-imidazol-4-yl}phenyl)pentanenitrile]	< 100
C/C=C\c1cc(C2(c3ccc(OC(F)F)cc3)N=C(N)N(C)C2=O)ccc1F (stereo not shown) [Example 75B, 2-amino-5-[4-(difluoromethoxy)phenyl]-5-{4-fluoro-3-[(1Z)-prop-1-en-1-yl]phenyl}-3-methyl-3,5-dihydro-4H-imidazol-4-one]	110 to 1000
C/C=C/c1cc([C@]2(c3ccc(OC(F)F)cc3)N=C(N)N(C)C2=O)ccc1F [Example 77A, (5S)-2-amino-5-[4-(difluoromethoxy)phenyl]-5-{4-fluoro-3-[(1E)-prop-1-en-1-yl]phenyl}-3-methyl-3,5-dihydro-4H-imidazol-4-one]	> 1000
CN1C(=O)[C@](c2ccc(OC(F)F)cc2)(c2ccc(F)c(C#CCF)c2)N=C1N [Example 108, (5S)-2-amino-5-[4-(difluoromethoxy)phenyl]-5-[4-fluoro-3-(3-fluoroprop-1-yn-1-yl)phenyl]-3-methyl-3,5-dihydro-4H-imidazol-4-one]	> 1000
CN1C(=O)C(c2ccc(OC(F)F)cc2)(c2cccc(NC(=O)C(F)(F)F)c2)N=C1N (stereo not shown) [Example 25]	< 100
C=CCCOc1cc(C2(c3ccc(OC(F)F)cc3)N=C(N)N(C)C2=O)ccc1F (stereo not shown) [Example 9, 2-amino-5-[3-(but-3-en-1-yloxy)-4-fluorophenyl]-5-[4-(difluoromethoxy)phenyl]-3-methyl-3,5-dihydro-4H-imidazol-4-one]	< 100
CN1C(=O)C(c2ccc(OC(F)F)cc2)(c2cccc(Nc3ccccc3)c2)N=C1N (stereo not shown) [Example 60, 2-amino-5-(3-anilinophenyl)-5-[4-(difluoromethoxy)phenyl]-3-methyl-3,5-dihydro-4H-imidazol-4-one]	110 to 1000
CN1C(=O)C(c2ccc(OC(F)F)cc2)(c2cccc(NC(=O)c3coc4ccccc34)c2)N=C1N (stereo not shown) [Example 40]	< 100
CN(C)Cc1cccc(C2(c3ccc(OC(F)F)cc3)N=C(N)N(C)C2=O)c1 (stereo not shown) [Example 62, 2-amino-5-[4-(difluoromethoxy)phenyl]-5-{3-[(dimethylamino)-methyl]phenyl}-3-methyl-3,5-dihydro-4H-imidazol-4-one]	> 1000
CN1C(=O)C(c2ccc(OC(F)F)cc2)(c2cccc(NC(=O)COCc3ccccc3)c2)N=C1N (stereo not shown) [Example 34]	110 to 1000
CN1C(=O)C(c2ccc(OC(F)F)cc2)(c2ccc(F)c(N3CCOCC3)c2)N=C1N (stereo not shown) [Example 86, 2-amino-4-(4-(difluoromethoxy)phenyl)-4-(4-fluoro-3-morpholinophenyl)-1-methyl-1H-imidazol-5(4H)-one]	110 to 1000

same assay, conditions: Examples 109-141; 10 nM enzyme, 25 μM substrate WABC-6, pH 4.5, room temperature

Compound	IC50 [nM]
C=CC[C@H](C)c1cccc(C2(c3ccc(OC(F)F)cc3)N=C(N)N(C)C2=O)c1 (stereo partly drawn) [Example 110, 2-amino-5-[4-(difluoromethoxy)phenyl]-3-methyl-5-{3-[(1S)-1-methylbut-3-en-1-yl]phenyl}-3,5-dihydro-4H-imidazol-4-one]	110 to 1000
CCOC/C=C(\C)c1cccc(C2(c3ccc(OC(F)F)cc3)N=C(N)N(C)C2=O)c1 (stereo not shown) [Example 109, 2-amino-5-[4-(difluoromethoxy)phenyl]-5-{3-[(1E)-3-ethoxy-1-methylprop-1-en-1-yl]phenyl}-3-methyl-3,5-dihydro-4H-imidazol-4-one]	110 to 1000
Cc1cc2cc(C3(c4ccc(OC(F)F)cc4)N=C(N)N(C)C3=O)ccc2o1 (stereo not shown) [Example 113, 2-amino-5-[4-(difluoromethoxy)phenyl]-3-methyl-5-(2-methyl-1-benzofuran-5-yl)-3,5-dihydro-4H-imidazol-4-one]	> 1000
